Assay results: US20110236885A1 (Academia Sinica, priority 2004, published 2011)
Several values for one entry are separate records, joined by “and”; a condition that tells them apart may be missing. Equal entries are not always repeated.

Tests used:
[1] = tested on: randomly selected Chinese patients receiving warfarin; experiment: Warfarin maintenance dose and INR in 104 randomly selected Chinese patients receiving warfarin, by VKORC1 -1639 genotype; type: in vivo, human
Experimental: (§1) Clinical information (including age, sex, weight, and average daily maintenance dose) was obtained from every participant.
Briefly, primers and probes were designed using the Spectro[…] software (Sequenom). Multiplex PCR was performed, and unincorporated dNTPs were dephosphorylated using shrimp alkaline phosphatase (Hoffman-LaRoche, Basel, Switzerland), followed by primer extension. The purified primer extension reactions were spotted onto a 384-element silicon chip (SpectroCHIP, Sequenom), analyzed in the Bruker Biflex III MALDI-TOF SpectroREADER mass spectrometer (Sequenom), and the resulting spectrum was processed with SpectroTYPER (Sequenom).
We analyzed the data regardless of the presence of other confounding variables, such as diet or other medications.

[2] = tested on: Han Chinese patients having warfarin sensitivity and resistance; experiment: Warfarin maintenance dose and INR in selected Chinese patients with warfarin sensitivity or resistance, by VKORC1 -1639 genotype; type: in vivo, human; details: for Dose: individual patients; for dose requirements, mean / dose requirements, range: selected patients
Excerpt: as §1
Primers were specifically designed for the intron-exon junctions, exons and 2 kbps upstream of the transcription start site for both CYP2C9 and VKORC1 using the Primer3 PCR primer program (http://fokker.wi.mit.edu/cgi-bin/primer3/primer3_www.cgi). The primers used to detect variants in the VKORC1 promoter were: 5′-[…] (SEQ ID NO:2; sense strand located 1.5 kb upstream of the transcription start site) and 5′-[…] (SEQ ID NO:3; anti-sense strand located 0.9 kb upstream of the transcription start site). The polymerase chain reactions (PCR) were performed in a final volume of […] containing 0.4 μM of each primer, 10 mM Tris-HCl (pH8.3), 50 mM KCl, 1.5 mM MgCl2, 0.2 mM dNTPs and 1 unit HotStart Taq™ (Qiagen Inc, Valencia, Calif., USA). Amplification conditions consisted of an initial denaturation of 12 min at 96° C., followed by 34 PCR cycles in 30 sec at 96° C., 30 sec at 60° C., 40 sec at 72° C.
The variants were: 1075 A>C (1359L known as CYP2C9*3), 895 A>G (T299A), and 1145 C>T (P382L).
We also sequenced the promoter, coding regions, and the exon-intron junctions of the VKORC1 gene.

[3] = heterozygous AG at VKORC1 -1639

## CC(=O)CC(c1ccccc1)c1c(O)c2ccccc2oc1=O (racemic) [warfarin, 4-hydroxy-3-(3-oxo-1-phenylbutyl)-2H-1-benzopyran-2-one]
[1]; none of the randomly selected patients had a greater dose
  warfarin dose, upper limit observed: ≤ 6 mg/day
[1]; randomly selected patients, AA genotype
  maintenance dose: 2.61+/−1.10 my/day
[1]; randomly selected patients, VKORC1 -1639 AG + GG (n = 21), mean ± SD
  Warfarin dose,: 3.81 ± 1.24 mg/day and 3.81 mg/day
[2]; VKORC1 -1639 AA, warfarin sensitive group (dose ≦1.5 mg/day), average daily maintenance dose
  Dose: 1.43 mg/d and 1.5 mg/d and 0.71 mg/d and 1 mg/d (2×)
[2]; VKORC1 -1639 AG, warfarin resistant group (dose ≧6 mg/day)
  Dose: 6.07 mg/day and 10 mg/day
[2]; VKORC1 -1639 GG, warfarin resistant group (dose ≧6 mg/day)
  Dose: 8.57 mg/day and 8.75 mg/day and 10 mg/day
[2]; AA genotype at VKORC1 -1639
  dose requirements, mean: 1.19 mg/day
  dose requirements, range: 0.71 to 1.50 mg/day
[2]; [3]
  dose requirements, mean: 8.04 mg/day
  dose requirements, range: 6.07 to 10 mg/day
[2]; homozygous GG at VKORC1 -1639
  dose requirements, mean: 9.11 mg/day
  dose requirements, range: 8.57 to 10 mg/day
